PMC8899516, “Structure-Activity Relationship Studies of 4-((4-(2-fluorophenyl)piperazin-1-yl)methyl)-6-imino-N-(naphthalen-2-yl)-1,3,5-triazin-2-amine (FPMINT) Analogues as Inhibitors of Human Equilibrative Nucleoside Transporters” (Frontiers in Pharmacology, 2022)

Columns and labels:
PK15NTD/ENT2 cells = test: Cell membrane integrity, LDH release; format: cell-based, porcine; conditions: 50 µM, 24 or 48 h
Description: (§1) PK15NTD/ENT1 and PK15NTD/ENT2 cells were seeded onto 96-well plates until they reached 80–90% confluent. The cells were then treated with different concentrations of compound 3c or an equivalent volume of a vehicle (0.5% dimethyl sulfoxide (DMSO), as a control) in a serum-free medium for another 24 or 48 h. For measuring cell membrane integrity, the lactate dehydrogenase (LDH) released into the culture medium was measured with a detection kit (Abcam, Cambridge, UK) according to the manufacturer’s instructions. The absorbance at 490 nm was measured with a microplate absorbance reader. For measuring cell viability, 0.5 mg/ml methylthiazolyldiphenyl-tetrazolium bromide (MTT) was added to each well. […] The absorbance was measured at 560 nm, with the absorbance at 655 nm serving as the background.
(§2) FIGURE 5 Effects of compound 3c on cytotoxicity and protein expressions of ENT1 and ENT2. Cytotoxicity of compound 3c was measured after 24 h or 48 h treatment of PK15NTD/ENT1 and PK15NTD/ENT2 cells with various concentrations of compound 3c (0.5, 5 and 50 μM) or a vehicle (0.5% DMSO, as a control) (A) The cell viability and (B) cell membrane integrity were determined by the MTT assay and LDH release, respectively (C) PK15NTD/ENT1 and (D) PK15NTD/ENT2 cells were incubated with 50 μM of compound 3c or a vehicle (0.5% DMSO, as a control) for 24 or 48 h. […]

PK15NTD/ENT1 cells = test: Cell membrane integrity, LDH release; format: cell-based, porcine; conditions: 50 µM, 24 or 48 h
Description: as §1, §2

ENT1 = target: T1, ENT1 (Homo sapiens, UniProt Q99808); test: [3H]uridine uptake in PK15NTD/ENT1 cells; format: cell-based; conditions: [3H]uridine 1 μM, 1 min, PK15NTD/ENT1 cells; read-out: IC50 against ENT1
T1 construct: expressed in transfected cells
T1 sequence (Q99808 1-456): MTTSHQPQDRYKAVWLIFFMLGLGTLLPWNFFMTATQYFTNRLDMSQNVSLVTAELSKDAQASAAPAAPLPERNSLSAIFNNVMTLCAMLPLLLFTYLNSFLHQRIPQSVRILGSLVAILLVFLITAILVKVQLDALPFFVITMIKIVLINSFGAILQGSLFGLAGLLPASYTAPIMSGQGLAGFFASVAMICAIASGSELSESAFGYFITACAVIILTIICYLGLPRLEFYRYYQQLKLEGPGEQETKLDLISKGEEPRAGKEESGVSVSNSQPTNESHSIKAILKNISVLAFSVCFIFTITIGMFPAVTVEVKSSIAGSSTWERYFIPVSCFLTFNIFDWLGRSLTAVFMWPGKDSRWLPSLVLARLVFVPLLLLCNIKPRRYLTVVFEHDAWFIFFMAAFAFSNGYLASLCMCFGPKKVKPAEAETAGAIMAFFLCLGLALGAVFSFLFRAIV
Description: Nucleoside transporter-deficient porcine kidney fibroblast cells (PK15NTD) stably transfected with cloned human ENT1 or ENT2 ([Ward et al., 2000]) were used as the in vitro models. The cells were cultured in Dulbecco’s Modified Eagle’s Medium (DMEM) supplemented with 10% (v/v) foetal bovine serum, 0.5 mg/ml geneticin, 100 units/ml penicillin, 100 μg/ml streptomycin and 0.25 μg/ml of amphotericin B at 37°C in 5% CO2/95% air.
Confluent monolayers of PK15NTD/ENT1 and PK15NTD/ENT2 cells in 24-well plates were washed thrice with HEPES-buffered Ringer’s solution containing (mM): 135 NaCl, 10 glucose, 5 KCl, 5 HEPES, 3.33 NaH2PO4, 1.0 CaCl2, 1.0 MgCl2, 0.83 Na2HPO4; pH 7.4. The cells were incubated with different concentrations of FPMINT analogues (from 10 nM to 100 μM) containing [^3H]uridine (2 μCi/ml, 1 μM) for 1 min. Passive uridine uptake was determined by incubating the cells in HEPES-buffered Ringer’s solution containing [^3H]uridine in the presence of 0.5 mM NBMPR. The cells were rapidly washed five times with ice-cold phosphate-buffered saline (PBS). After air-drying, the cells were solubilised by overnight incubation in 500 μl of 5% Triton-X100. Next, 300 μl of the cell lysates were mixed with 2 ml of scintillation liquid. The radioactivity of each sample was quantified by a scintillation counter. The protein content in each well was determined spectrophotometrically using a commercial bicinchoninic acid assay (Pierce Biochemicals, Rockford, IL). Uptake values were expressed as picomoles of [^3H]uridine per milligram of cellular protein per minute.
All data were analysed by GraphPad Prism software (San Diego, CA, United States). Data are expressed as mean ± standard error (SE) of three experiments performed in triplicate. The IC50 values were determined from the dose-response curves fitted with a logistic function. For the kinetic study of [^3H]uridine uptake, apparent K m and V max values were determined from the Michaelis-Menten equation, and K i was determined from the X-intercept of linear regression. Analysis of variance and Student’s t-test were performed for multiple and paired variables, respectively. p values of <0.05 were considered to be statistically significant.

## Cc1cccc(Nc2nc(N)nc(CN3CCN(c4ccc(F)cc4)CC3)n2)c1 [Compound 3c]
PK15NTD/ENT2 cells
  cell membrane integrity: No significant changes
PK15NTD/ENT1 cells
  cell membrane integrity: No significant changes
ENT1
  IC50: 2380 nM
